# Data: ChEMBL document CHEMBL5241131, “2-Anilino-4-(1-methyl-1H-pyrazol-4-yl)pyrimidine-derived CDK2 inhibitors as anticancer agents: Design, synthesis & evaluation” (Bioorg Med Chem, 2023)
# Active and inactive are the calls of the source. The calls are words filed in the database; no cut-off is given here.
# Legend:
# OVCAR-5 = assay: Antiproliferative activity against human OVCAR-5 cells assessed as inhibition of cell growth incubated for 72 hrs by MTT assay; format: functional
# [1] = biological target: Cyclin-dependent kinase 1/cyclin B (Homo sapiens, UniProt P06493); assay: Inhibition of CDK1/Cyclin B (unknown origin) assessed as inhibition constant incubated for 30 to 60 mins presence of dithiothreitol by Cheng-Prusoff equation analysis; format: protein-complex assay
# [2] = biological target: Cyclin-dependent kinase 2/cyclin E (Homo sapiens, UniProt P24941); assay: Inhibition of CDK2/cyclin E (unknown origin) assessed as inhibition constant incubated for 30 to 60 mins presence of dithiothreitol by Cheng-Prusoff equation analysis; format: protein-complex assay
# [3] = biological target: Cyclin-dependent kinase 5/CDK5 activator 1 (Homo sapiens, UniProt Q00535); assay: Inhibition of CDK5/p25 (unknown origin) assessed as inhibition constant incubated for 30 to 60 mins presence of dithiothreitol by Cheng-Prusoff equation analysis; format: protein-complex assay
# Chain of Cyclin-dependent kinase 5/CDK5 activator 1 (Q00535 whole entry): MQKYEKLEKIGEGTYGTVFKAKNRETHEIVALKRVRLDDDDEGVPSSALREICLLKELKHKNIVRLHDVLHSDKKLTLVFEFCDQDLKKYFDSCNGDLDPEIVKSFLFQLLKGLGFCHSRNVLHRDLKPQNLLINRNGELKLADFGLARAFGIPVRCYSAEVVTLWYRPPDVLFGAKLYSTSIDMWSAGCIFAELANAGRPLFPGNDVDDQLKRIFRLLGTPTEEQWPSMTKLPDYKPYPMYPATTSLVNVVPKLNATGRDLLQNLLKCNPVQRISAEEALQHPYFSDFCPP
# Chain of Cyclin-dependent kinase 5/CDK5 activator 1 (Q15078 whole entry, further chain): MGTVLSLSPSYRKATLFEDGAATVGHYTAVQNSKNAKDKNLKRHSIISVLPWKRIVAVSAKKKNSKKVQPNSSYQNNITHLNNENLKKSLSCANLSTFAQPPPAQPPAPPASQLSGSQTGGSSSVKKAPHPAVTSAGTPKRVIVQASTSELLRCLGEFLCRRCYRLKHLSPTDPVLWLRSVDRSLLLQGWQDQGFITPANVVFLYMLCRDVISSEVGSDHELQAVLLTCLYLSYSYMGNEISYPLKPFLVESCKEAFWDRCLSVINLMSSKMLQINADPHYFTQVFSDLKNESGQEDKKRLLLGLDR
# CDK9/cyclin T1 = CDK9/cyclin T1 (Homo sapiens, UniProt P50750); assay: Inhibition of CDK9/cyclin T1 (unknown origin) assessed as inhibition constant incubated for 30 to 60 mins presence of dithiothreitol by Cheng-Prusoff equation analysis; format: protein-complex assay
# Chain of CDK9/cyclin T1 (O60563 whole entry): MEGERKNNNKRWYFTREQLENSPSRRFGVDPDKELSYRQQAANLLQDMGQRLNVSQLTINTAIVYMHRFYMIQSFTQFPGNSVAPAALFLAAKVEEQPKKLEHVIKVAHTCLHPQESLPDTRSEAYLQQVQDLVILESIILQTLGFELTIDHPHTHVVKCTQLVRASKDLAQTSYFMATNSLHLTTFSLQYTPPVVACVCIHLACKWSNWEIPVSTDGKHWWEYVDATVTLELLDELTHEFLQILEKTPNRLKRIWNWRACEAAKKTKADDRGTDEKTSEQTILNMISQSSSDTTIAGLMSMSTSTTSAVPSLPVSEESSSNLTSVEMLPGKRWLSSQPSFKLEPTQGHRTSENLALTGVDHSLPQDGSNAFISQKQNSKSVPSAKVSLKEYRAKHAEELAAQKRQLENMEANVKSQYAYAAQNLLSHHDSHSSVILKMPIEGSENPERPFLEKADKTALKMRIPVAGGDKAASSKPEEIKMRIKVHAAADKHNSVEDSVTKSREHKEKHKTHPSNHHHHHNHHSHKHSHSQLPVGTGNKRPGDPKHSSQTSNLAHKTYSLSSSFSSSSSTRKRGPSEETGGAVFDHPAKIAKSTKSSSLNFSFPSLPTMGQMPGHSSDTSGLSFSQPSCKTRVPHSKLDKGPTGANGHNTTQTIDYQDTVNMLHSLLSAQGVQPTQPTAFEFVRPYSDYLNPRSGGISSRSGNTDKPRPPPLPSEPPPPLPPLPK
# Chain of CDK9/cyclin T1 (P50750 whole entry): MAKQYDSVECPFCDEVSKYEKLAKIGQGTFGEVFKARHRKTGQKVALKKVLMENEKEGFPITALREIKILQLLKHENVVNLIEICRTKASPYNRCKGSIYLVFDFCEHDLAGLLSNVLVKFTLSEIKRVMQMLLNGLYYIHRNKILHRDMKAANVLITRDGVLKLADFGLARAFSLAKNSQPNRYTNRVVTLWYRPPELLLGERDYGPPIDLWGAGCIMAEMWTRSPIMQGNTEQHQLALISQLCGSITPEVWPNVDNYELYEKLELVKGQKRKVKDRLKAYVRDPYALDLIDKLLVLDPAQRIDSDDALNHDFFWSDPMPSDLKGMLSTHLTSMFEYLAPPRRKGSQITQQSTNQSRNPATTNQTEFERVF
# A2780 = assay: Antiproliferative activity against human A2780 cells assessed as inhibition of cell growth incubated for 72 hrs by MTT assay; format: functional
# U-937 = assay: Antiproliferative activity against human U-937 cells assessed as inhibition of cell growth incubated for 72 hrs by MTT assay; format: functional
# MV4-11 = assay: Antiproliferative activity against human MV4-11 cells assessed as inhibition of cell growth incubated for 72 hrs by MTT assay; format: functional
# MDA-MB-231 = assay: Antiproliferative activity against human MDA-MB-231 cells assessed as inhibition of cell growth incubated for 72 hrs by MTT assay; format: functional
# NCI-H460 = assay: Antiproliferative activity against human NCI-H460 cells assessed as inhibition of cell growth incubated for 72 hrs by MTT assay; format: functional
# NCI-H82 = assay: Antiproliferative activity against human NCI-H82 cells assessed as inhibition of cell growth incubated for 72 hrs by MTT assay; format: functional
# U-251 = assay: Antiproliferative activity against human U-251 cells assessed as inhibition of cell growth incubated for 72 hrs by MTT assay; format: functional
# HCT-116 [4] = assay: Antiproliferative activity against human HCT-116 cells assessed as inhibition of cell growth incubated for 72 hrs by MTT assay; format: functional
# HT-29 = assay: Antiproliferative activity against human HT-29 cells assessed as inhibition of cell growth incubated for 72 hrs by MTT assay; format: functional
# KM12 = assay: Antiproliferative activity against human KM12 cells assessed as inhibition of cell growth incubated for 72 hrs by MTT assay; format: functional
# COLO 205 = assay: Antiproliferative activity against human COLO 205 cells assessed as inhibition of cell growth incubated for 72 hrs by MTT assay; format: functional
# ES-2 = assay: Antiproliferative activity against human ES2 cells assessed as inhibition of cell growth incubated for 72 hrs by MTT assay; format: functional
# OAW-28 = assay: Antiproliferative activity against human OAW-28 cells assessed as inhibition of cell growth incubated for 72 hrs by MTT assay; format: functional
# OV-90 = assay: Antiproliferative activity against human OV-90 cells assessed as inhibition of cell growth incubated for 72 hrs by MTT assay; format: functional
# [5] = Antiproliferative activity against human COV318 cells assessed as inhibition of cell growth incubated for 72 hrs by MTT assay; format: functional
# [6] = Antiproliferative activity against human COV504 cells assessed as inhibition of cell growth incubated for 72 hrs by MTT assay; format: functional
# HCT-116 [7] = assay: Induction of cell cycle arrest in human HCT-116 cells assessed as accumulation of cells at sub G1 phase at 0.5 uM incubated for 24 hrs by propidium iodide staining based flow cytometry (reference value: 0.24%); format: functional
# HCT-116 [8] = assay: Induction of cell cycle arrest in human HCT-116 cells assessed as accumulation of cells at sub G1 phase at 1 uM incubated for 24 hrs by propidium iodide staining based flow cytometry (reference value: 0.24%); format: functional
# HCT-116 [9] = assay: Induction of cell cycle arrest in human HCT-116 cells assessed as accumulation of cells at G1 phase at 0.5 uM incubated for 24 hrs by propidium iodide staining based flow cytometry (reference value: 51.33%); format: functional
# HCT-116 [10] = assay: Induction of cell cycle arrest in human HCT-116 cells assessed as accumulation of cells at G1 phase at 1 uM incubated for 24 hrs by propidium iodide staining based flow cytometry (reference value: 51.33%); format: functional
# HCT-116 [11] = assay: Induction of cell cycle arrest in human HCT-116 cells assessed as accumulation of cells at S phase at 0.5 uM incubated for 24 hrs by propidium iodide staining based flow cytometry (reference value: 18.01%); format: functional
# HCT-116 [12] = assay: Induction of cell cycle arrest in human HCT-116 cells assessed as accumulation of cells at S phase at 1 uM incubated for 24 hrs by propidium iodide staining based flow cytometry (reference value: 18.01%); format: functional
# HCT-116 [13] = assay: Induction of cell cycle arrest in human HCT-116 cells assessed as accumulation of cells at G2/M phase at 0.5 uM incubated for 24 hrs by propidium iodide staining based flow cytometry (reference value: 28.37%); format: functional
# HCT-116 [14] = assay: Induction of cell cycle arrest in human HCT-116 cells assessed as accumulation of cells at G2/M phase at 1 uM incubated for 24 hrs by propidium iodide staining based flow cytometry (reference value: 28.37%); format: functional
# HCT-116 [15] = assay: Induction of apoptosis in human HCT-116 cells assessed as viable cells at 0.5 uM incubated for 72 hrs by AnnexinV-FITC/propidium iodide staining based flow cytometry (reference value: 93.43%); format: functional; settings: read-out: Activity
# HCT-116 [16] = assay: Induction of apoptosis in human HCT-116 cells assessed as early apoptotic cells at 0.5 uM incubated for 72 hrs by AnnexinV-FITC/propidium iodide staining based flow cytometry (reference value: 2.95%); format: functional
# HCT-116 [17] = assay: Induction of apoptosis in human HCT-116 cells assessed as late apoptotic cells at 0.5 uM incubated for 72 hrs by AnnexinV-FITC/propidium iodide staining based flow cytometry (reference value: 2.91%); format: functional
# HCT-116 [18] = assay: Induction of apoptosis in human HCT-116 cells assessed as necrotic cells at 0.5 uM incubated for 72 hrs by AnnexinV-FITC/propidium iodide staining based flow cytometry (Rvb =0.71%); format: functional
# HCT-116 [19] = assay: Induction of apoptosis in human HCT-116 cells assessed as viable cells at 1 uM incubated for 72 hrs by AnnexinV-FITC/propidium iodide staining based flow cytometry (reference value: 93.43%); format: functional; settings: read-out: Activity
# HCT-116 [20] = assay: Induction of apoptosis in human HCT-116 cells assessed as early apoptotic cells at 1 uM incubated for 72 hrs by AnnexinV-FITC/propidium iodide staining based flow cytometry (reference value: 2.95%); format: functional
# HCT-116 [21] = assay: Induction of apoptosis in human HCT-116 cells assessed as late apoptotic cells at 1 uM incubated for 72 hrs by AnnexinV-FITC/propidium iodide staining based flow cytometry (reference value: 2.91%); format: functional
# HCT-116 [22] = assay: Induction of apoptosis in human HCT-116 cells assessed as necrotic cells at 1 uM incubated for 72 hrs by AnnexinV-FITC/propidium iodide staining based flow cytometry (Rvb =0.71%); format: functional
# [23] = biological target: Cyclin-dependent kinase 2 (Homo sapiens) (UniProt P24941); assay: Inhibition of CDK2 in human HCT-116 cells assessed as reduction in phosphorylation at Serine 807/811 residue incubated for 24 hrs by Western blot analysis; format: cell-based; settings: dose 0.5-1 µM
# [24] = biological target: Cyclin-dependent kinase 2 (Homo sapiens) (UniProt P24941); assay: Inhibition of CDK2 in human HCT-116 cells assessed as reduction in phosphorylation at Thr821 residue incubated for 24 hrs by Western blot analysis; format: cell-based; settings: dose 0.5-1 µM
# HCT-116 [25] = assay: Downregulation of CDC25B expression in human HCT-116 cells at 0.5 to 1 uM incubated for 24 hrs by Western blot analysis; format: functional, cell-based; settings: dose 0.5-1 µM
# HCT-116 [26] = assay: Induction of DNA damage in human HCT-116 cells assessed as increase in H2AX phosphorylation at Ser139 residue at 0.5 to 1 uM incubated for 24 hrs by Western blot analysis; format: functional, cell-based; settings: dose 0.5-1 µM
# HCT-116 [27] = assay: Induction of apoptosis in human HCT-116 cells assessed as increase in cleaved PARP level at 0.5 to 1 uM incubated for 24 hrs by Western blot analysis; format: functional, cell-based; settings: dose 0.5-1 µM
structure (smiles),measurement,setting,value
Cn1cc(-c2nc(Nc3ccc(S(N)(=O)=O)cc3)ncc2Cl)cn1,GI50,OVCAR-5,108 nM
same,Ki,[1],5 nM
same,Ki,[2],1 nM
same,Ki,[3],33 nM
same,Ki,CDK9/cyclin T1,17 nM
same,GI50,A2780,74 nM
same,GI50,U-937,145 nM
same,GI50,MV4-11,88 nM
same,GI50,MDA-MB-231,472 nM
same,GI50,NCI-H460,527 nM
same,GI50,NCI-H82,183 nM
same,GI50,U-251,695 nM
same,GI50,HCT-116 [4],186 nM
same,GI50,HT-29,291 nM
same,GI50,KM12,558 nM
same,GI50,COLO 205,194 nM
same,GI50,ES-2,285 nM
same,GI50,OAW-28,780 nM
same,GI50,OV-90,444 nM
same,GI50,[5],545 nM
same,GI50,[6],768 nM
same,Activity,HCT-116 [7],0.51%
same,Activity,HCT-116 [8],2.11%
same,Activity,HCT-116 [9],4.24%
same,Activity,HCT-116 [10],27.94%
same,Activity,HCT-116 [11],7.94%
same,Activity,HCT-116 [12],18.5%
same,Activity,HCT-116 [13],86.28%
same,Activity,HCT-116 [14],52.06%
same,viability at 0.5 µM,HCT-116 [15],77%
same,Activity,HCT-116 [16],12.2%
same,Activity,HCT-116 [17],9.6%
same,Activity,HCT-116 [18],1.19%
same,viability at 1 µM,HCT-116 [19],78.4%
same,Activity,HCT-116 [20],4.78%
same,Activity,HCT-116 [21],5.01%
same,Activity,HCT-116 [22],1.83%
same,inhibition,[23],Dose-Dependent Effect
same,inhibition,[24],Dose-Dependent Effect
same,Activity,HCT-116 [25],Active
same,Activity,HCT-116 [26],inactive
same,Activity,HCT-116 [27],Active
